As a reminder, the IC50 is the concentration that inhibits the measured activity by half.

The target of the assay is T1, human PRMT1 (Homo sapiens, UniProt Q99873).
T1 construct: GST-tagged PRMT1; made in house; host or cells: High Five insect cells (baculovirus, pFastBacI)
T1 sequence (Q99873 with tags, fused parts or gaps): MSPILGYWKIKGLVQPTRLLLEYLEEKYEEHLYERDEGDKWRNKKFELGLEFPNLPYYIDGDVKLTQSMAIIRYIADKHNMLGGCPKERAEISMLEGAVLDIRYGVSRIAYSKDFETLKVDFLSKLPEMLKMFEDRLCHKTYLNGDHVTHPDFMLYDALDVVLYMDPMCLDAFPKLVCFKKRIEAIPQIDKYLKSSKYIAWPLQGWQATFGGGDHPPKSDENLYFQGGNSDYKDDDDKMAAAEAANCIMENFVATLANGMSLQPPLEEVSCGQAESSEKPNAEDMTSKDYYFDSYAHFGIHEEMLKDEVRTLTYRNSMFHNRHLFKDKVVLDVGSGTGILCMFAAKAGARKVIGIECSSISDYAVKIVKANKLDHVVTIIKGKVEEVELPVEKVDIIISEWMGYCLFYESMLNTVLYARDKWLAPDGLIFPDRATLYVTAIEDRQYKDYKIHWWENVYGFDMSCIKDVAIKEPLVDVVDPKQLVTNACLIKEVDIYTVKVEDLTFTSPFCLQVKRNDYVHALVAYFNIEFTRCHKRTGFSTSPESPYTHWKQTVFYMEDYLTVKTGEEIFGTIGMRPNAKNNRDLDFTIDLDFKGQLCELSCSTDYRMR
The assay is described as follows: PRMT1 biochemical assay (3H-SAM Flashplate, peptide substrate). The settings on record: read-out: PRMT1_ IC50. The essentials:
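FLAG-tagged full-length human PRMT1 (0.5 nM, GST-tagged, insect-cell expressed) preincubated 30 min at RT with compound, then biotinylated histone H4 36-50 peptide (20 nM) plus 200 nM 3H-SAM and 1.5 uM SAM in Bicine pH 7.6, 2% DMSO. 3H-methylated peptide captured on streptavidin Flashplate; IC50 from 3/4-parameter fit.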
Turning to `CC(C)n1ncc2c(C(=O)NCc3c(F)cccc3F)cc(-c3cccc(CNCCN)c3)nc21` [Compound 168], the IC50 came out at 7810 nM. Consider `CNCCN(C)Cc1cccc(-c2ccc3ncn(C(C)C)c3c2)c1` [Compound 28], for which the IC50 worked out at 114 nM. For `CNCCN(C)Cc1cccc(-c2cc(C(=O)NCC3CCOCC3)c3cnn(C4CC4)c3n2)c1` [Compound 26], the IC50 stood at 106 nM. With `CNCCN(C)Cc1cc(-c2cc(C(=O)NC3CCOCC3)c3cnn(C(C)C)c3n2)ccc1F` [Compound 130] the figure was 833 nM; with `CC(C)n1ncc2c(C(=O)NCc3ccncc3)cc(-c3cccc(CNCCN)c3)nc21` [Compound 150], 1600 nM; with `CN(CCN)Cc1ccc(-c2ccc3ncn(-c4ccccc4)c3c2)cc1` [Compound 19], 82.3 nM. With `CC(C)n1ncc2c(C(=O)NCC3CCN(C)CC3)cc(-c3cccc(CN(C)CCN(C)C)c3)nc21` [Compound 162], the IC50 amounted to 4320 nM. With `CC(C)n1cnc2cc(-c3cccc(CN(C)CCN)c3)ccc21` [Compound 32], the concentration for half-maximal inhibition (IC50) came out at 128 nM. In the case of `COc1ccc(Cn2cnc3ccc(-c4ccc(CNCCN)cc4)cc32)cc1` [Compound 132], the half-maximal inhibitory concentration (IC50) came to 848 nM. `CC(C)n1ncc2c(C(=O)NCc3ccccc3)cc(-c3cccc(CN(C)CCN)c3)cc21` [Compound 14]: the IC50 amounted to 69.2 nM.

Turning to `CN(CCN)Cc1cccc(-c2nc(NCc3nccs3)c3cnn(C4CC4)c3n2)c1` [Compound 1], the IC50 was determined as 19.3 nM.

As for `CNCCN(C)Cc1cccc(-c2nc(NCc3cc(C)nn3C)c3cnn(C4CC4)c3n2)c1` [Compound 17], the half-maximal inhibitory concentration (IC50) was found to be 69.7 nM. With `CNCCN(C)Cc1cccc(-c2cc(OCC(F)(F)F)c3cnn(C(C)C)c3n2)c1` [Compound 154], the IC50 was determined as 2290 nM.

As to `CNCCN(C)Cc1cccc(-c2cc(NC3CC3)c3cnn(C(C)C)c3n2)c1` [Compound 11], the IC50 was 51.6 nM. With `CNCCN(C)Cc1cccc(-c2cc(NS(=O)(=O)C(F)(F)F)c3cnn(C(C)C)c3n2)c1` [Compound 164], the IC50 was 4500 nM. The figure for `CC(C)n1ncc2c(C(=O)NC3CCOCC3)cc(-c3cccc(CN(C)CCN)c3)nc21` [Compound 148] is 1480 nM.

Take `CC(C)n1cnc2cc(-c3ccc(CN(C)CCN)cc3)ccc21` [Compound 46]: the concentration for half-maximal inhibition (IC50) came to 196 nM. With `CC(C)n1cnc2ccc(-c3ccc(CNCCN)cc3)cc21` [Compound 166] the figure was 5090 nM; with `CNCCN(C)Cc1cccc(-c2cnc3c(c2)c(Br)nn3CC2CCOCC2)c1` [Compound 39], 164 nM; with `CC(C)n1ncc2c(C(=O)NCc3ccccc3)cc(-c3cccc(CNCCN)c3)cc21` [Compound 134], 925 nM. With `CNCCN(C)Cc1cccc(-c2cc(C(=O)NCc3c(F)cccc3F)c3cnn(C(C)C)c3n2)c1` [Compound 47], the IC50 was found to be 209 nM. In the case of `CC(C)n1ncc2c(C(=O)NCc3ccc(F)cc3)cc(-c3cccc(CN(C)CCN)c3)nc21` [Compound 25], the IC50 is 105 nM. For the molecule `CNCCN(C)Cc1cccc(-c2nc(NC3CCOCC3)c3cnn(C(C)(C)C)c3n2)c1` [Compound 27, N1-(3-(1-tert-butyl-4-(tetrahydro-2H-pyran-4-ylamino)-1H-pyrazolo[3,4-d]pyrimidin-6-yl)benzyl)-N1,N2-dimethylethane-1,2-diamine], the concentration for half-maximal inhibition (IC50) is 106 nM. With `CC(C)n1ncc2c(C(=O)NCc3ccccc3)cc(-c3cccc(CNCCN)c3)nc21` [Compound 155], the IC50 worked out at 2300 nM. The figure for `CCS(=O)(=O)Nc1cc(-c2cccc(CN(C)CCNC)c2)nc2c1cnn2C(C)C` [Compound 161] is 4170 nM; for `CNCCN(C)Cc1cccc(-c2cc(C(=O)NC3CCOCC3)c3cnn(C4CCC4)c3n2)c1` [Compound 29] it is 114 nM; for `Cc1c(C(=O)NCc2ccccc2)cc(-c2cccc(CN(C)CCN)c2)c2cn[nH]c12` [Compound 15] it is 69.6 nM.

For `CNCCN(C)Cc1cccc(-c2cc(C(=O)NCc3cnn(C)c3C)c3cnn(C(C)C)c3n2)c1` [Compound 137], the half-maximal inhibitory concentration (IC50) is 985 nM. In the case of `CC(C)n1ncc2c(C(=O)NCC3CCOCC3)cc(-c3cccc(CN(C)CCNC4CC4)c3)nc21` [Compound 167], the IC50 was determined as 5890 nM. With `CC(C)n1cc2c(N)cc(-c3cccc(CN(C)CCN)c3)nc2n1` [Compound 13] the figure was 66.2 nM; with `Cc1cccc(CCn2cnc3ccc(-c4ccc(CNCCN)cc4)cc32)c1` [Compound 143], 1110 nM. For the molecule `CNCCN(C)Cc1cccc(-c2cc(NC(=O)NC)c3cnn(C(C)C)c3n2)c1` [Compound 138], the IC50 came out at 1040 nM.

With `CNCCN(C)Cc1cccc(-c2ccc3cn(Cc4ccccc4)nc3n2)c1` [Compound 35], the 50% inhibitory concentration (IC50) was 152 nM. In the case of `CC(C)n1ncc2c(C(=O)N3CCCCC3)cc(-c3cccc(CNCCN)c3)nc21` [Compound 153], the IC50 worked out at 1710 nM. Consider `Cc1ccc(-n2cnc3cc(-c4ccc(CNCCN)cc4)ccc32)cc1` [Compound 131], for which the IC50 came out at 841 nM. `CN(CCN)Cc1cccc(-c2cc(C(=O)NC3CCOCC3)c3cnn(C)c3n2)c1` [Compound 158]: the 50% inhibitory concentration (IC50) was 3020 nM. For `CCn1ncc2c(C(=O)N[C@@H](C)c3ccccc3)cc(-c3cccc(CN(C)CCNC)c3)nc21` [Compound 33], the IC50 was determined as 140 nM. `CN(CCN)Cc1cccc(-c2cc(C(=O)NC3CCOCC3)c3cnn(CC(F)(F)F)c3n2)c1` [Compound 144]: the 50% inhibitory concentration (IC50) came to 1200 nM. As for `CS(=O)(=O)N1CCC(Cn2cnc3ccc(-c4ccc(CNCCN)cc4)cc32)CC1` [Compound 129], the IC50 was found to be 821 nM. With `NCCNCc1ccc(-c2ccc3ncn(C4CCNCC4)c3c2)cc1` [Compound 157] the figure was 2430 nM; with `CNC(=O)Nc1cc(-c2cccc(CN(C)CCN)c2)nc2c1cnn2C(C)C` [Compound 126], 783 nM; with `CN(CCN)Cc1cccc(-c2nc(NCc3cccnc3)c3cnn(C4CC4)c3n2)c1` [Compound 40], 168 nM. Regarding `CNCCN(C)Cc1cccc(-c2cc(NS(=O)(=O)N(C)C)c3cnn(C(C)C)c3n2)c1` [Compound 139], the IC50 is 1050 nM. The figure for `CC(C)n1ncc2c(C(=O)N[C@@H](C)c3ccccc3)cc(-c3cccc(CN(C)CCN)c3)cc21` [Compound 10] is 48.5 nM; for `CNCCN(C)Cc1cccc(-c2cc(N)c3cnn(C(C)C)c3n2)c1` [Compound 151] it is 1660 nM. The figure for `N#Cc1cccc(Cn2cnc3ccc(-c4ccc(CNCCN)cc4)cc32)c1` [Compound 145] is 1270 nM; for `CNCCN(C)Cc1cccc(-c2cc(NS(C)(=O)=O)c3cnn(C(C)C)c3n2)c1` [Compound 170] it is 10000 nM. The figure for `CN(CCN)Cc1cccc(-c2nc(NC3CCOCC3)c3cnn(C(C)(C)C)c3n2)c1` [Compound 18] is 72.8 nM. As for `CCC(=O)c1cc(-c2cccc(CN(C)CCNC)c2)nc2c1cnn2C(C)C` [Compound 128], the half-maximal inhibitory concentration (IC50) is 808 nM.

Take `CNCCN(C)Cc1cccc(-c2ccc3c(c2)ncn3C(C)C)c1` [Compound 36]: the half-maximal inhibitory concentration (IC50) came out at 153 nM.

Turning to `CNCCN(C)Cc1cccc(-c2cc(NS(C)(=O)=O)c3cnn(C(C)C)c3n2)c1` [Compound 169], the half-maximal inhibitory concentration (IC50) stood at 10000 nM.

Regarding `CNCCN(C)Cc1cccc(-c2cc(Nc3ncc(C)s3)c3cnn(C(C)C)c3n2)c1` [Compound 20], the IC50 was 85 nM. Consider `CNCCN(C)Cc1cccc(-c2cc(C(=O)NCC3CCOCC3)c3cnn(C4CCC4)c3n2)c1` [Compound 21], for which the IC50 is 89 nM. In the case of `CC(C)n1ncc2c(N3CCOCC3)cc(-c3cccc(CN(C)CCNC4CC4)c3)nc21` [Compound 163], the IC50 was 4410 nM. Take `CNCCN(C)Cc1cccc(-c2cnc3c(c2)OCC(=O)N3)c1` [Compound 355]: the IC50 turned out to be 512 nM. `CC(C)n1ncc2c(C(=O)N(C)Cc3ccccc3)cc(-c3cccc(CN(C)CCN)c3)nc21` [Compound 31]: the IC50 was 128 nM. Take `COc1cccc(Cc2nc3ccc(-c4ccc(CNCCN)cc4)cc3n2C(C)C)c1` [Compound 135]: the IC50 amounted to 932 nM. Consider `CC(C)n1ncc2c(C(=O)N[C@@H](C)c3ccccc3)cc(-c3cccc(CN(C)CCN)c3)nc21` [Compound 136], for which the IC50 came to 934 nM. The figure for `CNCCN(C)Cc1cccc(-c2cc(C(=O)NCc3ccccc3F)c3cnn(C(C)C)c3n2)c1` [Compound 38] is 159 nM; for `NCCNCc1ccc(-c2cnc3c(c2)CCC(=O)N3)cc1` [Compound 156] it is 2410 nM; for `CNCCN(C)Cc1cccc(-c2cc(C(=O)N[C@@H](C)c3ccccc3)c3cnn(C(C)C)c3n2)c1` [Compound 44] it is 189 nM.

For `CNCCN(C)Cc1cccc(-c2cc(C(=O)N3CCc4ccccc4C3)c3cnn(C(C)C)c3n2)c1` [Compound 42], the half-maximal inhibitory concentration (IC50) was determined as 185 nM. With `CC(C)n1ncc2c(NC3CC3)cc(-c3cccc(CN(C)CCN)c3)nc21` [Compound 41] the figure was 172 nM; with `CC(C)n1ncc2c(C(=O)NCc3ccccc3F)cc(-c3cccc(CNCCN)c3)nc21` [Compound 159], 3140 nM. With `CC(C)n1ncc2c(C(=O)N[C@@H](C)c3ccccc3)cc(-c3cccc(CNCCN)c3)nc21` [Compound 160] the figure was 4100 nM; with `CC(C)n1ncc2c(C(=O)NCc3c(F)cccc3F)cc(-c3cccc(CN(C)CCN)c3)nc21` [Compound 37], 154 nM; with `CNCCN(C)Cc1cccc(-c2cc(C(=O)N(C)Cc3ccccc3)c3cnn(C(C)C)c3n2)c1` [Compound 24], 97.4 nM. For `CC(C)n1ncc2c(C(=O)N3CCCCC3)cc(-c3cccc(CN(C)CCN)c3)nc21` [Compound 43], the IC50 stood at 188 nM. As to `Cc1cc2cc(-c3ccc(CNCCN)cc3)ccc2[nH]1` [Compound 141], the concentration for half-maximal inhibition (IC50) was found to be 1110 nM.

These data come from patent US20170280720A1, “ARGININE […] INHIBITORS AND USES THEREOF” (EPIZYME, INC., priority 2014, published 2017).
